Test results from patent US9079905B2, “Compounds for the treatment of CNS disorders” (Boehringer Ingelheim International GmbH, priority 2008, dated 2015).
pIC50: −log10 of the molar value.

Biological target: T1, human PDE9A2 (Homo sapiens, UniProt O76083)
T1 construct: made in house; host or cells: Sf9 insect cells (infected; crude lysate used as enzyme source)
Test: PDE9A2 enzymatic activity assay (scintillation proximity assay)
Format: biochemical
Conditions: for pIC50: specific IC50 value is within the given range; for inhibition at 10 µM / % Inhibition of PDE 9A2: at 10 μM
Protocol: The PDE9A2 enzymatic activity assay was run as scintillation proximity assay (SPA), in general according to the protocol of the manufacturer (Amersham Biosciences, product number: TRKQ 7100).
As enzyme source, lysate (PBS with 1% Triton X-100 supplemented with protease inhibitors, cell debris removed by centrifugation at 13.000 rpm for 30 min) of SF 9 cell expressing the human PDE9A2 was used. The total protein amount included in the assay varied upon infection and production efficacy of the SF9 cells and lay in the range of 0.1-100 ng.
In general, the assay conditions were as follows: • total assay volume: 40 microliter • protein amount: 0.1-50 ng • substrate concentration (cGMP): 20 nanomolar; ˜1 mCi/1 • incubation time: 60 min at room temperature • final DMSO concentration: 0.2-1
The assays were run in 384-well format. The test reagents as well as the enzyme and the substrate were diluted in assay buffer. The assay buffer contained 50 mM Tris, 8.3 mM MgCl2, 1.7 mM EGTA, 0.1% BSA, 0.05% Tween 20; the pH of assay buffer was adjusted to 7.5. The reaction was stopped by applying a PDE9 specific inhibitor (e.g. compounds according to WO04099210 or WO04099211) in excess.
The activity of the positive control (minus the negative control=background) is set to 100% and activity in the presence of test compound is expressed relative to these 100%. Within this setting, an inhibition above 100% might be possible due to the nature of the variation of the positive control within the assay. In the following inhibition of PDE 9A2 is presented for a concentration at 10 μM, if not indicated otherwise.
IC50 can be calculated with GraphPadPrism or other suited software setting the positive control as 100 and the negative control as 0. For calculation of IC50 dilutions of the test compounds (substrates) are to be selected and tested following the aforementioned protocol.

[1] = read-out: % Inhibition of PDE 9A2

T1 sequence (O76083 1-533 isoform O76083-2): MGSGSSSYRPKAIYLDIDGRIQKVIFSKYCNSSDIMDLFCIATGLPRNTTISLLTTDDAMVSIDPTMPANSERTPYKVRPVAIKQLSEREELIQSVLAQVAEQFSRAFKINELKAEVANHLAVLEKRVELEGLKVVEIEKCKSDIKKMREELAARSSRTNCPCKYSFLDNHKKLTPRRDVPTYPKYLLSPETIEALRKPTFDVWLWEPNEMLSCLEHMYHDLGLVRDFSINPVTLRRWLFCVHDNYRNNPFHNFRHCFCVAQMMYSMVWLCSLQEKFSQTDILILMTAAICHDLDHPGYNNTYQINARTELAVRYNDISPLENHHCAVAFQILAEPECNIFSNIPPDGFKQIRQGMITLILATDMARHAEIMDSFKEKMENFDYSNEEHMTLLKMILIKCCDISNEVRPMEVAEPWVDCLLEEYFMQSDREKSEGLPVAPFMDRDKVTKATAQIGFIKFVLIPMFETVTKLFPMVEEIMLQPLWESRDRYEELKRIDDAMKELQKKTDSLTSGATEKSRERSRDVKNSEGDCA

| Compound | inhibition at 10 µM [1] [%] | pIC50 | inhibition at 3.3 µM (at 3.3 μM, read-out: % Inhibition of PDE 9A2) [%] | % Inhibition of PDE 9A2 [%] |
| --- | --- | --- | --- | --- |
| O=c1[nH]c(Cc2ccccn2)nc2c1cnn2C1CCCC(c2ccccc2)C1 (mixture of isomers) [Example 14] | 94 | 5.82 to 7.00 | – | – |
| O=c1[nH]c(CC2CC2)nc2c1cnn2C1CCCC(c2ccccc2)C1 (mixture of isomers) [Example 15] | 93 | 5.82 to 7.00 | – | – |
| CC(C)(C)OC(=O)NC1CCCC(n2ncc3c(=O)[nH]c(CC4CCCC4)nc32)C1 (mixture of isomers) [Example 16] | 104 | 7.00 to 9.00 | – | – |
| CC(C)(C)OC(=O)NC1CCCC(n2ncc3c(=O)[nH]c(Cc4ccccc4OC(F)(F)F)nc32)C1 (mixture of isomers) [Example 18] | 100 | 7.00 to 9.00 | – | – |
| CC(=O)NC1CCCC(n2ncc3c(=O)[nH]c(Cc4ccccc4OC(F)(F)F)nc32)C1 (mixture of isomers) [Example 49] | 99 | 7.00 to 9.00 | – | – |
| COC1CCCCC1n1ncc2c(=O)[nH]c(Cc3ccccn3)nc21 (racemic) [Example 12] | 83 | 5.82 to 7.00 | – | – |
| CCCC1OCCCC1Cc1nc2c(cnn2C2CCC(F)(F)CC2)c(=O)[nH]1 (racemic) [Example 24] | 98 | 5.82 to 7.00 | – | – |
| O=c1[nH]c(C(F)c2ccccc2)nc2c1cnn2C1CCC(F)(F)CC1 (racemic) [Example 25] | 103 | 7.00 to 9.00 | – | – |
| CCC(Cc1nc2c(cnn2C2CCC(F)(F)CC2)c(=O)[nH]1)C(F)(F)F (racemic) [Example 27] | 104 | 7.00 to 9.00 | – | – |
| O=c1[nH]c(C(F)c2ccccc2Br)nc2c1cnn2C1CCC(F)(F)CC1 (racemic) [Example 48-2] | 92 | 5.82 to 7.00 | – | – |
| CC(Cc1nc2c(cnn2C2CCC(F)(F)CC2)c(=O)[nH]1)C(F)F (racemic) [Example 48-5] | 93 | 5.82 to 7.00 | – | – |
| C[C@@H]1CC(Cc2nc3c(cnn3C3CCC(F)(F)CC3)c(=O)[nH]2)C(=O)N1C (mixture of isomers) [Example 48-6] | 87 | 5.82 to 7.00 | – | – |
| CC(=O)NC1CCCC(n2ncc3c(=O)[nH]c(CC4CCCC4)nc32)C1 (racemic) [Example 50] | 95 | 5.82 to 7.00 | – | – |
| O=C(NC1CCCC(n2ncc3c(=O)[nH]c(CC4CCCC4)nc32)C1)c1ccccc1 (racemic) [Example 51] | 98 | 5.82 to 7.00 | – | – |
| CC1(C)CC(Cc2nc3c(cnn3C3CCC(F)(F)CC3)c(=O)[nH]2)CO1 (racemic) [Example 52] | 98 | 7.00 to 9.00 | – | – |
| Cn1cc(-c2ccccc2C(F)c2nc3c(cnn3C3CCC(F)(F)CC3)c(=O)[nH]2)cn1 (racemic) [Example 72-11] | 84 | 7.00 to 9.00 | – | – |
| NC1CCCC(n2ncc3c(=O)[nH]c(CC4CCCC4)nc32)C1 (racemic) [Example 86] | 77 | 5.82 to 7.00 | – | – |
| O=c1[nH]c(C(F)c2ccccc2-n2cccn2)nc2c1cnn2C1CCC(F)(F)CC1 (racemic) [Example 88] | 93 | 5.82 to 7.00 | – | – |
| O=c1[nH]c(C(F)c2ccccc2-n2cccn2)nc2c1cnn2C1CCC(F)(F)CC1 (single isomer, unassigned) [Example 92] | 93 | 5.82 to 7.00 | – | – |
| CCC(Cc1nc2c(cnn2C2CCC(F)(F)CC2)c(=O)[nH]1)C(F)(F)F (single isomer, unassigned) [Example 101] | 100 | 7.00 to 9.00 | – | – |
| CCC(Cc1nc2c(cnn2C2CCC(F)(F)CC2)c(=O)[nH]1)C(F)(F)F (single isomer, unassigned) [Example 102] | – | 5.82 to 7.00 | – | 96 |
| O=c1[nH]c(CC2CC2)nc2c1cnn2C1CCC(F)(F)CC1 [Example 2] | 101 | 7.00 to 9.00 | – | – |
| O=c1[nH]c(Cc2cc(F)cc(F)c2)nc2c1cnn2C1CCC(F)(F)CC1 [Example 7] | 96 | 7.00 to 9.00 | – | – |
| CC(C)Cc1nc2c(cnn2C2CCC(F)(F)CC2)c(=O)[nH]1 [Example 9] | 97 | 7.00 to 9.00 | – | – |
| CCCc1nc2c(cnn2C2CCC(F)(F)CC2)c(=O)[nH]1 [Example 22] | 104 | 7.00 to 9.00 | – | – |
| N#Cc1ccccc1Cc1nc2c(cnn2C2CCC(F)(F)CC2)c(=O)[nH]1 [Example 31] | 99 | 7.00 to 9.00 | – | – |
| O=c1[nH]c(CCCC(F)(F)F)nc2c1cnn2C1CCC(F)(F)CC1 [Example 32] | 98 | 7.00 to 9.00 | – | – |
| O=c1[nH]c(Cc2ccccc2Br)nc2c1cnn2C1CCC(F)(F)CC1 [Example 33] | 98 | 7.00 to 9.00 | – | – |
| Cc1cccnc1Cc1nc2c(cnn2C2CCC(F)(F)CC2)c(=O)[nH]1 [Example 35] | 94 | 7.00 to 9.00 | – | – |
| O=c1[nH]c(Cc2ccccc2I)nc2c1cnn2C1CCC(F)(F)CC1 [Example 36] | 99 | 7.00 to 9.00 | – | – |

The next lines start with the values.

| inhibition at 10 µM [1] [%] | pIC50 | inhibition at 3.3 µM (at 3.3 μM, read-out: % Inhibition of PDE 9A2) [%] | % Inhibition of PDE 9A2 [%] | Compound |
| --- | --- | --- | --- | --- |
| 102 | 7.00 to 9.00 | – | – | O=c1[nH]c(CC2CCCC2)nc2c1cnn2C1CCCC1O (mixture of isomers) [Example 10] |
| 103 | 7.00 to 9.00 | – | – | CCOC(=O)NC1CCCC(n2ncc3c(=O)[nH]c(CC4CCCC4)nc32)C1 (mixture of isomers) [Example 17] |
| 100 | 7.00 to 9.00 | – | – | CCOC(=O)NC1CCCC(n2ncc3c(=O)[nH]c(Cc4ccccc4OC(F)(F)F)nc32)C1 (mixture of isomers) [Example 19] |
| 94 | 5.82 to 7.00 | – | – | O=C(NC1CCCC(n2ncc3c(=O)[nH]c(Cc4ccccc4OC(F)(F)F)nc32)C1)c1ccccc1 (mixture of isomers) [Example 85] |
| 89 | 5.82 to 7.00 | – | – | COC1CCCCC1n1ncc2c(=O)[nH]c(CC3CC3)nc21 (racemic) [Example 11] |
| 91 | 5.82 to 7.00 | – | – | CC1(C)CC(Cc2nc3c(cnn3C3CCC(F)(F)CC3)c(=O)[nH]2)C(=O)O1 (racemic) [Example 28] |
| 98 | 7.00 to 9.00 | – | – | CC(Cc1nc2c(cnn2C2CCC(F)(F)CC2)c(=O)[nH]1)C(F)(F)F (racemic) [Example 30] |
| – | 5.82 to 7.00 | 52 | – | O=c1[nH]c(C(F)c2ccccc2-c2ccncc2)nc2c1cnn2C1CCC(F)(F)CC1 (racemic) [Example 72-10] |
| 81 | 5.82 to 7.00 | – | – | NC1CCCC(n2ncc3c(=O)[nH]c(Cc4ccccc4OC(F)(F)F)nc32)C1 (racemic) [Example 87] |
| 98 | 7.00 to 9.00 | – | – | CC(Cc1nc2c(cnn2C2CCC(F)(F)CC2)c(=O)[nH]1)C(F)(F)F (single isomer, unassigned) [Example 47] |
| – | 5.82 to 7.00 | – | 96 | CC(Cc1nc2c(cnn2C2CCC(F)(F)CC2)c(=O)[nH]1)C(F)(F)F (single isomer, unassigned) [Example 48] |
| 100 | 7.00 to 9.00 | – | – | CC1(C)CC(Cc2nc3c(cnn3C3CCC(F)(F)CC3)c(=O)[nH]2)CO1 (single isomer, unassigned) [Example 77] |
| 98 | 7.00 to 9.00 | – | – | O=c1[nH]c(Cc2ccccn2)nc2c1cnn2C1CCC(F)(F)CC1 [Example 1] |
| 94 | 7.00 to 9.00 | – | – | O=c1[nH]c(Cc2ccccc2OC(F)(F)F)nc2c1cnn2C1CCC(F)(F)CC1 [Example 3] |
| 100 | 7.00 to 9.00 | – | – | O=c1[nH]c(Cc2ccccc2)nc2c1cnn2C1CCC(F)(F)CC1 [Example 4] |
| 98 | 7.00 to 9.00 | – | – | O=c1[nH]c(Cc2cccc(Cl)c2)nc2c1cnn2C1CCC(F)(F)CC1 [Example 5] |
| 98 | 7.00 to 9.00 | – | – | O=c1[nH]c(Cc2cccc(C(F)(F)F)c2)nc2c1cnn2C1CCC(F)(F)CC1 [Example 6] |
| 98 | 7.00 to 9.00 | – | – | CCCCc1nc2c(cnn2C2CCC(F)(F)CC2)c(=O)[nH]1 [Example 8] |
| 98 | 5.82 to 7.00 | – | – | CC1(C)CC(n2ncc3c(=O)[nH]c(CC4CC4)nc32)CC(C)(C)C1 [Example 13] |
| 104 | 7.00 to 9.00 | – | – | O=c1[nH]c(CC2CCCC2)nc2c1cnn2C1CCC(F)(F)CC1 [Example 20] |
| 103 | 7.00 to 9.00 | – | – | CCC(CC)Cc1nc2c(cnn2C2CCC(F)(F)CC2)c(=O)[nH]1 [Example 21] |
| 100 | 5.82 to 7.00 | – | – | O=c1[nH]c(CC2CCOC2)nc2c1cnn2C1CCC(F)(F)CC1 (stereo not drawn) [Example 23] |
| 100 | 7.00 to 9.00 | – | – | COc1ccc(Cc2nc3c(cnn3C3CCC(F)(F)CC3)c(=O)[nH]2)cc1 [Example 26] |
| 96 | 5.82 to 7.00 | – | – | O=c1[nH]c(CC2CCC(F)(F)CC2)nc2c1cnn2C1CCC(F)(F)CC1 [Example 34] |
